Consider four molecules from patent publication US12076329B2, “Compositions and methods for enhancing visual function” (The Regents of the University of California, priority 2020, dated 2024).

Entries after “also recorded” stand apart in the source; their conditions may differ.

One test concerns the target T1, Halo-mGluR2 (Rattus norvegicus, UniProt P31421).
T1 construct: expressed in transfected cells; host or cells: HEK 293T
As to the kind of experiment: Photoactivation and labeling of Halo-mGluR2, whole cell patch clamp in HEK 293T cells. Type of test: cell-based. As for the experimental part: (§1) Whole cell patch clamp recordings from HEK 293T cells were performed 24-48 hours after transfection as previously described (Farrants et al., 2018). Briefly, voltage clamp recordings at −60 mV were performed in a high potassium (120 mM) solution to enable large inward currents upon receptor activation.
(§2) Unless otherwise noted, cells were incubated with 1-10 μM of PORTL for 45-60 min at 37° C. in the appropriate extracellular recording solution. Labeling efficiency was determined as previously described (Levitz et al., 2017). Illumination was applied to the entire field of view using a CoolLED pE-4000 through a 40× objective. Light intensity in the sample plane was 1-2 mW/mm^2. pClamp software was used for both data acquisition and control of illumination. All drugs were purchased from Tocris and applied using a gravity-driven perfusion system.
With the goal of further expanding the repertoire of PORTLs to a third self-labelling, orthogonal suicide enzyme, the Halo-tag, which reacts specifically with alkyl chlorides (Los et al., 2008), was used. […] Based on the hypothesis that branching Halo-targeting PORTLs would enhance photoswitching, “doubleClAG12” (^2×ClAG12) (Scheme S8 (FIG. 1H); FIG. 2E) was synthesized. […]
On the technique in general: Patch clamp records ionic current or voltage across a cell membrane.

A further test addresses T2, SNAP-mGluR2 (Rattus norvegicus, UniProt P31421).
T2 construct: expressed in transfected cells; host or cells: HEK293 / HEK 293T, with co-expressed GIRK channel
Kind of test: Photoactivation of SNAP-mGluR2 read out as GIRK current, whole cell patch clamp in HEK293 cells. Conditions: specificity: applied to cells expressing SNAP-mGluR2, n=3 cells. Type of test: cell-based. On the procedure: as §1, §2
FIG. 3A-3C. Monovalent BGAG12,460 elicits rat SNAP-mGluR2 and human SNAP-mGluR6 GIRK photo-current in HEK293 cells. FIG. 3A. Group II and III mGluRs, like mGluR2 and 6, respectively, couple to GIRK channels in neurons and this system reconstitutes in non-neuronal cell lines, so that SNAP-mGluR2 or 6 coupled to a BGAG photoswitch will be activated by light and induce hyperpolarizing GIRK current. FIG. 3B. Blue (460 nm) light photo-activates BGAG12,460:SNAP-mGluR2 and elicits an inward K+ current from co-expressed GIRK channel in a HEK293 cell voltage clamped at −60 mV with [K+]in=[K+]out=150 mM. FIG. 3C.
FIG. 4A-4D. Multibranched BGAG12,460 increases potency and sensitivity of SNAP-mGluR2 activation of GIRK channels in HEK293 cells. FIG. 4A. ^4×BGAG12,460 consists of a single BG end for 1:1 attachment to SNAP on each subunit of the mGluR and 4 branches of a 12-PEG linker, with each branch bearing a photoswitchable azobenzene-glutamate (AG). FIG. 4B. […] Dependence of SNAP-mGluR2 photo-activation efficiency, read out as GIRK current, with single, 2-branch and 4-branch BGAG12,460. […]

Another test addresses T3, CLIP-mGluR2 (Rattus norvegicus, UniProt P31421).
T3 construct: expressed in transfected cells; host or cells: HEK 293T
Kind of test: Photoactivation of CLIP-mGluR2, whole cell patch clamp in HEK 293T cells. Type of test: cell-based. On the procedure:
as §1, §2

The next test concerns GFP-tagged mGluR2. As to the kind of experiment: Nanobody-photoswitch conjugate (NPC)-mediated photoswitching of GFP-tagged mGluR2. Type of test: cell-based. The following applies: SNAP-tagged anti-GFP nanobody labeled with PORTL. The source says:
Finally, a long-term goal of tethered photopharmacology is to incorporate the optical control afforded by such compounds into antibody-mediated targeting of proteins. “Nanobody-photoswitch conjugates” (NPCs) consisting of a SNAP-tagged nanobody labeled with a PORTL have been reported. NPCs containing an anti-GFP nanobody are able to photoactivate GFP-tagged mGluR2, but with limited efficiency (Farrants et al., 2018).

The test system of test [1] is rd1 animals expressing medium wave cone opsin in RGCs. Kind of test: Line pattern recognition in moving displays, medium wave cone opsin in RGCs. Conditions: expressed in RGCs of rd1 animals. Type of test: in vivo, mouse. From the text: The kinetics of onset, decay and recovery of the restored light response are expected to affect the ability to recognize a visual pattern. […] Thus, the speed limit of ^4×BGAG12,460:SNAP-mGluR2 in RGCs is ≥8 cm/s, whereas that of medium wave cone opsin in RGCs is ≤4 cm/s.

Test [2] shares this test system. The following applies: Berry et al. (2019); cited from earlier work.
For test [3], the system named is RGCs from isolated rd1 retina. As to the kind of experiment: MEA recordings of RGCs from isolated rd1 retina. Type of test: cell-based, mouse. Conditions: 1 s light flashes. The source says: FIG. 10A-10C. MEA recordings of RGCs from isolated rd1 retina with either BGAG12,460:SNAP-mGluR2 or medium wave cone opsin in RGCs. A) Superimposed average responses to 1 s light flashes in dozens of RGCs in 3 representative retinas isolated from: wildtype mice (Wt; red), rd1 mice expressing medium wave (MW) cone opsin in RGCs (black), and rd1 mice expressing SNAP-mGluR2 in RGCs (blue) following intravitreal injection of BGAG12,460. […] B) Blue light activation of BGAG12,460:SNAP-mGluR2 evokes an immediate inhibition with a sustained amplitude during illumination, followed by a transient excitatory rebound after termination of illumination. […] As light pulses are shortened, the delay to peak response increases and deactivation slows, (from (Berry et al. (2019) supra).

T3 sequence (P31421 with tags, fused parts or gaps): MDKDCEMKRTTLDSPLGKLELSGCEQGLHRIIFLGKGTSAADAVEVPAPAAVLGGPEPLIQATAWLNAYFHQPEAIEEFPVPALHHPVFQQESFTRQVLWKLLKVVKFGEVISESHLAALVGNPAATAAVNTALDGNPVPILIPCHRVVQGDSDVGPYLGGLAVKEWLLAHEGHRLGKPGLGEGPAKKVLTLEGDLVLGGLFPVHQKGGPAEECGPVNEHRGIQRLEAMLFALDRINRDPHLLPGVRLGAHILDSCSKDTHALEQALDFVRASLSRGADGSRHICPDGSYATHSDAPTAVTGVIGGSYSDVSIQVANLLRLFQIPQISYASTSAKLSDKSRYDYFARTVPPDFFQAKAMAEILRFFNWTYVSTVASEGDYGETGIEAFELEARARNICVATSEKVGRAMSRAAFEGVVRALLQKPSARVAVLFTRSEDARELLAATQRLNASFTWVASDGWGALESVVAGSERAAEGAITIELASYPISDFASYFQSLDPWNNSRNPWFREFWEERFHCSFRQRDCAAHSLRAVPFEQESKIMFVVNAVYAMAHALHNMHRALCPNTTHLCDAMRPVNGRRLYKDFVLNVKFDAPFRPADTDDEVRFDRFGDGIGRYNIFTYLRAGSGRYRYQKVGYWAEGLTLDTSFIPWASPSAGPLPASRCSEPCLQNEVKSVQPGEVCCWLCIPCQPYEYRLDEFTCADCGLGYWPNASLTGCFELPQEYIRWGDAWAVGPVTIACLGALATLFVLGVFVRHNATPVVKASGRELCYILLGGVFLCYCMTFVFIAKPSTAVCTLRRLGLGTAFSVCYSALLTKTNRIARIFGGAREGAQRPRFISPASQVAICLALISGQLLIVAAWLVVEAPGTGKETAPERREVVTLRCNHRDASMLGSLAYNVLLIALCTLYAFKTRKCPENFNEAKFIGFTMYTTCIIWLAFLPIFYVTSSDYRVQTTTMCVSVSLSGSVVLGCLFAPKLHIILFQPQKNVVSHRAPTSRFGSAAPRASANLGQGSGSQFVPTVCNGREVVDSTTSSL
T2 sequence (P31421 with tags, fused parts or gaps): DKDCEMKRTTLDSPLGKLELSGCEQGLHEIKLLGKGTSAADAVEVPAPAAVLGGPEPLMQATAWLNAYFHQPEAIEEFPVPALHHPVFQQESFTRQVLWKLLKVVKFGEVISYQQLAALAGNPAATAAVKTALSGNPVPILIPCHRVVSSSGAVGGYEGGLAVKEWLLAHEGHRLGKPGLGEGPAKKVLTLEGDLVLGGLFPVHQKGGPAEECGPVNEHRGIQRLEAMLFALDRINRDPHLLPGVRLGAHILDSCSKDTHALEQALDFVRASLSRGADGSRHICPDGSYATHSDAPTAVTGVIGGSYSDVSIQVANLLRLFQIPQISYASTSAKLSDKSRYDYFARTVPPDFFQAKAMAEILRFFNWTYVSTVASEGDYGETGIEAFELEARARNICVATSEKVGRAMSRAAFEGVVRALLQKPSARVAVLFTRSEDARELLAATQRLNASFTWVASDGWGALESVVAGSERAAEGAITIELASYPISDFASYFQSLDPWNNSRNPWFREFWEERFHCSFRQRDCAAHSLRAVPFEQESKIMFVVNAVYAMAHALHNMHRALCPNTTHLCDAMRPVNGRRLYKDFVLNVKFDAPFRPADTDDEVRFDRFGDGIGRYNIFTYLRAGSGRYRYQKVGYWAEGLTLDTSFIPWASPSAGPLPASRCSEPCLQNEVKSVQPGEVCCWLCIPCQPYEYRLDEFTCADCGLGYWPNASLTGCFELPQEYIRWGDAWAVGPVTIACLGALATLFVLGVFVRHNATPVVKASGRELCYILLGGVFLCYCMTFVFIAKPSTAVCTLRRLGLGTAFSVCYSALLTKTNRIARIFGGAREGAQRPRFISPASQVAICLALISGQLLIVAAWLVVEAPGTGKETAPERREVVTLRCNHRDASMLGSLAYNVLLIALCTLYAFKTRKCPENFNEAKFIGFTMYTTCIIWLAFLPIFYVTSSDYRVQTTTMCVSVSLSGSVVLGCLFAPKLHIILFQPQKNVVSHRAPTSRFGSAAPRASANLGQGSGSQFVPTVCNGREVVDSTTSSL
T1 sequence (P31421 with tags, fused parts or gaps): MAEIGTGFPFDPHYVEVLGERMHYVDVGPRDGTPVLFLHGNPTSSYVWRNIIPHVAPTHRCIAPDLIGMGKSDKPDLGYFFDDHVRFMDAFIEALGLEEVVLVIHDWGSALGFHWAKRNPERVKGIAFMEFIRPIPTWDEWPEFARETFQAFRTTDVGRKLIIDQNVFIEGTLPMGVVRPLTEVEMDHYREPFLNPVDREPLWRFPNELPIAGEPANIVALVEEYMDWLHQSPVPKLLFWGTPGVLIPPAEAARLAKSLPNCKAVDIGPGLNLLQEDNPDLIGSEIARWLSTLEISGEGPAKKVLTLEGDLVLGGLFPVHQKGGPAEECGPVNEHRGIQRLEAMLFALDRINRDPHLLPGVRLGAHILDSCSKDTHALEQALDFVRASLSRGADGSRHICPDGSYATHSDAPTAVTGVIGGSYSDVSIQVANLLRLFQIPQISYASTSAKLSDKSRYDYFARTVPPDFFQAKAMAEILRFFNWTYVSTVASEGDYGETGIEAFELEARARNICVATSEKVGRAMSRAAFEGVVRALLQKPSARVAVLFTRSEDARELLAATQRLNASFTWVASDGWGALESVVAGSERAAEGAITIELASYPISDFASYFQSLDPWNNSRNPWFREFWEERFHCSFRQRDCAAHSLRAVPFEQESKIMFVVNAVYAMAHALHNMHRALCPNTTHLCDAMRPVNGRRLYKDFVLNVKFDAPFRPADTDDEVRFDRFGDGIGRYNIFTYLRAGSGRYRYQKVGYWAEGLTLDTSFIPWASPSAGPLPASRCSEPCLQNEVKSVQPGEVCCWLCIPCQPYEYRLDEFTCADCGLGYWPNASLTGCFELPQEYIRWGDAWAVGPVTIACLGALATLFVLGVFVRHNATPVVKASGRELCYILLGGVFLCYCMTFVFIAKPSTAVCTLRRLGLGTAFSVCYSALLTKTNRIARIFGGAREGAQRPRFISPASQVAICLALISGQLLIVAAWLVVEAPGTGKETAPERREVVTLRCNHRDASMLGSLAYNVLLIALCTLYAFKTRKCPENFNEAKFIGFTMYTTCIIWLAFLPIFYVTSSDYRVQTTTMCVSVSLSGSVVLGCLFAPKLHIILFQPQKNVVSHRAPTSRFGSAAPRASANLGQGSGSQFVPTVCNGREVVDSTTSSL

Turning to `N[C@@H](C[C@H](CCCC(=O)Nc1ccc(/N=N/c2ccc(NC(=O)CNC(=O)CCOCCOCCOCCOCCOCCOCCOCCOCCOCCOCCOCCOCCNC(=O)CCCC(=O)NCCOCCOCCCCCCCl)cc2)cc1)C(=O)O)C(=O)O` [ClAG12, (2S,4S)-2-Amino-4-(4-((4-((E)-(4-(61-chloro-4,44,48-trioxo-7,10,13,16,19,22,25,28,31,34,37,40,52,55-tetradecaoxa-3,43,49-triazahenhexacontanamido)phenyl)diazenyl)phenyl)amino)-4-oxobutyl)pentanedioic acid], the “photoactivation of Halo-mGluR2” value at Halo-mGluR2 was “showed photoactivation of mGluR2”.
On to `Nc1ccnc(OCc2ccc(CNC(=O)CCC(=O)N3Cc4ccccc4-c4nnn(CCOCCOCCOCCOCCOCCOCCOCCOCCOCCOCCOCCOCCC(=O)N[C@H](CCC(=O)NCC(=O)Nc5ccc(/N=N/c6ccc(NC(=O)CCC[C@@H](C[C@H](N)C(=O)O)C(=O)O)cc6)cc5)C(=O)NCC(=O)Nc5ccc(/N=N/c6ccc(NC(=O)CCC[C@@H](C[C@H](N)C(=O)O)C(=O)O)cc6)cc5)c4-c4ccccc43)cc2)n1` [^2×BCAG12], for which the “photocurrent relative to 1 mM glutamate” value on SNAP-mGluR2 worked out at 2.8±0.3%. The “optical control / efficiency of photoactivation of CLIP-mGluR2” value on CLIP-mGluR2 is on record as “near-complete optical control; also recorded: enhances efficiency of CLIP-mGluR2 photoactivation compared to BCAG12”.
Take `Nc1nc(OCc2ccc(CNC(=O)CCCC(=O)NCCOCCOCCOCCOCCOCCOCCOCCOCCOCCOCCOCCOCCC(=O)N[C@H](CCC(=O)NCC(=O)Nc3ccc(/N=N/c4ccc(NC(=O)CCC[C@@H](C[C@H](N)C(=O)O)C(=O)O)cc4)cc3)C(=O)NCC(=O)Nc3ccc(/N=N/c4ccc(NC(=O)CCC[C@@H](C[C@H](N)C(=O)O)C(=O)O)cc4)cc3)cc2)c2nc[nH]c2n1` [^2×BGAG12]: the “photoswitch efficiency of NPC-mediated photoswitching of mGluR2” value in the test with GFP-tagged mGluR2 is listed as “doubled the photoswitch efficiency”.

B1: medium wave cone opsin: medium wave (MW) cone opsin expressed in RGCs of rd1 mice, comparator light-activated GPCR (protein, UniProt O35599 1-359, looked up)
Medium-wave-sensitive opsin 1: MAQRLTGEQTLDHYEDSTHASIFTYTNSNSTKGPFEGPNYHIAPRWVYHLTSTWMILVVVASVFTNGLVLAATMRFKKLRHPLNWILVNLAVADLAETIIASTISVVNQIYGYFVLGHPLCVIEGYIVSLCGITGLWSLAIISWERWLVVCKPFGNVRFDAKLATVGIVFSWVWAAIWTAPPIFGWSRYWPYGLKTSCGPDVFSGTSYPGVQSYMMVLMVTCCIFPLSIIVLCYLQVWLAIRAVAKQQKESESTQKAEKEVTRMVVVMVFAYCLCWGPYTFFACFATAHPGYAFHPLVASLPSYFAKSATIYNPIIYVFMNRQFRNCILHLFGKKVDDSSELSSTSKTEVSSVSSVSPA
Consider B1, for which, in test [1], the “line pattern recognition when the display moved at 4 cm/s” value is recorded as “performed at the level of the untreated rd1 animals” and the “speed limit of line pattern recognition in moving displays” value was no more than 4 cm/s. Also, in test [2], the “line pattern recognition when the displays move at 1 cm/s” value is “perform well”. In addition, the “latency of RGC response to light onset” value in test [3] is “delayed response”.
